Where “and” joins values, the source holds several entries; their conditions need not be identical. Equal values may be shown once.
System: KRAS PDC multicell spheroid viability
Experiment: Anticancer human tumor 521955-158-R6-J3-PDC patient-derived pancreatic carcinoma cell line growth inhibition [KRAS2]
Conditions: for viability, T/C: stronger effect = lower value
Outline: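 Combination screen of spheroid viability in tumor-cell co-cultures with endothelial (HUVEC) and mesenchymal stem cell stroma. Each agent was tested in half-log dilutions, topping at clinical Cmax or at 10 microM without a known Cmax.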

[1] = curve of first compound, second compound 0.1 µM
[2] = curve of first compound, second compound 0.316 µM
[3] = curve of first compound, second compound 1 µM
[4] = curve of first compound, second compound 3.16 µM
[5] = curve of first compound, second compound 10 µM
[6] = second compound 0.1 µM, first compound 0.01 µM
[7] = second compound 0.1 µM, first compound 0.0316 µM
[8] = second compound 0.1 µM, first compound 0.1 µM
[9] = second compound 0.1 µM, first compound 0.316 µM
[10] = second compound 0.1 µM, first compound 1 µM
[11] = second compound 0.1 µM, first compound 3.16 µM
[12] = second compound 0.316 µM, first compound 0.01 µM
[13] = second compound 0.316 µM, first compound 0.0316 µM
[14] = second compound 0.316 µM, first compound 0.1 µM
[15] = second compound 0.316 µM, first compound 0.316 µM
[16] = second compound 0.316 µM, first compound 1 µM
[17] = second compound 0.316 µM, first compound 3.16 µM
[18] = second compound 1 µM, first compound 0.01 µM
[19] = second compound 1 µM, first compound 0.0316 µM
[20] = second compound 1 µM, first compound 0.1 µM
[21] = second compound 1 µM, first compound 0.316 µM
[22] = second compound 1 µM, first compound 1 µM
[23] = second compound 1 µM, first compound 3.16 µM
[24] = second compound 3.16 µM, first compound 0.01 µM
[25] = second compound 3.16 µM, first compound 0.0316 µM
[26] = second compound 3.16 µM, first compound 0.1 µM
[27] = second compound 3.16 µM, first compound 0.316 µM
[28] = second compound 3.16 µM, first compound 1 µM
[29] = second compound 3.16 µM, first compound 3.16 µM
[30] = second compound 10 µM, first compound 0.01 µM
[31] = second compound 10 µM, first compound 0.0316 µM
[32] = second compound 10 µM, first compound 0.1 µM
[33] = second compound 10 µM, first compound 0.316 µM
[34] = second compound 10 µM, first compound 1 µM
[35] = second compound 10 µM, first compound 3.16 µM
[36] = second compound 0.1 µM, first compound 10 µM
[37] = second compound 0.316 µM, first compound 10 µM
[38] = second compound 1 µM, first compound 10 µM
[39] = second compound 3.16 µM, first compound 10 µM
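Note: drug exposure lasted seven days.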
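Throughout, for viability, T/C: 100% = DMSO vehicle wells and lower means fewer viable cells.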

CC1COCCN1c1cc(-c2ccnn2C)c2ccnc(-c3ccn[nH]3)c2n1 (configuration not stated) + CC1OCC2(CCN(c3cnc(Sc4ccnc(N)c4Cl)c(N)n3)CC2)C1N
IC50 [1]: > 3.16 µM
IC50 [2]: > 3.16 µM
IC50 [3]: > 3.16 µM
IC50 [4]: > 3.16 µM
IC50 [5]: > 3.16 µM
viability, T/C [6]: 87.9%
viability, T/C [7]: 81.1%
viability, T/C [8]: 73.9%
viability, T/C [9]: 67.6%
viability, T/C [10]: 67.3%
viability, T/C [11]: 75.2%
viability, T/C [12]: 89.9%
viability, T/C [13]: 84.5%
viability, T/C [14]: 74.6%
viability, T/C [15]: 64.3%
viability, T/C [16]: 71.2%
viability, T/C [17]: 64.4%
viability, T/C [18]: 91.9%
viability, T/C [19]: 84.8%
viability, T/C [20]: 81.4%
viability, T/C [21]: 76.7%
viability, T/C [22]: 68.3%
viability, T/C [23]: 61%
viability, T/C [24]: 102%
viability, T/C [25]: 109%
viability, T/C [26]: 99.9%
viability, T/C [27]: 75.8%
viability, T/C [28]: 67.8%
viability, T/C [29]: 66.6%
viability, T/C [30]: 108%
viability, T/C [31]: 115%
viability, T/C [32]: 90.7%
viability, T/C [33]: 87.6%
viability, T/C [34]: 79.3%
viability, T/C [35]: 64.9%

CC1COCCN1c1cc(-c2ccnn2C)c2ccnc(-c3ccn[nH]3)c2n1 (configuration not stated) + COc1cc2nc(C)nc(NC(C)c3cc(N)cc(C(F)(F)F)c3)c2cc1OC1CCOC1
IC50 [1]: > 3.16 µM
IC50 [2]: > 3.16 µM
IC50 [3]: > 3.16 µM
IC50 [4]: > 3.16 µM
IC50 [5]: < 0.01 µM
viability, T/C [6]: 100%
viability, T/C [7]: 85.4%
viability, T/C [8]: 71.3%
viability, T/C [9]: 78.3%
viability, T/C [10]: 65.5%
viability, T/C [11]: 80.4%
viability, T/C [12]: 82.8%
viability, T/C [13]: 79.6%
viability, T/C [14]: 79.1%
viability, T/C [15]: 71%
viability, T/C [16]: 64.4%
viability, T/C [17]: 75.3%
viability, T/C [18]: 88.5%
viability, T/C [19]: 78.2%
viability, T/C [20]: 78.3%
viability, T/C [21]: 68.6%
viability, T/C [22]: 66.8%
viability, T/C [23]: 74.8%
viability, T/C [24]: 77.6%
viability, T/C [25]: 71.6%
viability, T/C [26]: 62.4%
viability, T/C [27]: 54.6%
viability, T/C [28]: 64.3%
viability, T/C [29]: 59.1%
viability, T/C [30]: 41.5%
viability, T/C [31]: 48.4%
viability, T/C [32]: 45.3%
viability, T/C [33]: 34.1%
viability, T/C [34]: 47.6%
viability, T/C [35]: 43.4%

CC(=O)OC12COC1CC(O)C1(C)C(=O)C(O)C3=C(C)C(OC(=O)C(O)C(NC(=O)OC(C)(C)C)c4ccccc4)CC(O)(C(OC(=O)c4ccccc4)C21)C3(C)C (configuration not stated) + COc1cc2nc(C)nc(NC(C)c3cc(N)cc(C(F)(F)F)c3)c2cc1OC1CCOC1
IC50 [1]: > 3.16 µM
IC50 [2]: > 3.16 µM
IC50 [3]: > 3.16 µM
IC50 [4]: > 3.16 µM
IC50 [5]: > 3.16 µM
viability, T/C [6]: 78.7%
viability, T/C [7]: 74.6%
viability, T/C [8]: 69.7%
viability, T/C [9]: 77.8%
viability, T/C [10]: 85.7%
viability, T/C [11]: 114%
viability, T/C [12]: 66.3%
viability, T/C [13]: 66.5%
viability, T/C [14]: 70.2%
viability, T/C [15]: 60.3%
viability, T/C [16]: 90.7%
viability, T/C [17]: 117%
viability, T/C [18]: 75.6%
viability, T/C [19]: 67.3%
viability, T/C [20]: 66.5%
viability, T/C [21]: 78.5%
viability, T/C [22]: 86.2%
viability, T/C [23]: 106%
viability, T/C [24]: 52.6%
viability, T/C [25]: 61.3%
viability, T/C [26]: 55.7%
viability, T/C [27]: 70%
viability, T/C [28]: 111%
viability, T/C [29]: 120%
viability, T/C [30]: 68.5%
viability, T/C [31]: 62.2%
viability, T/C [32]: 72.6%
viability, T/C [33]: 84.6%
viability, T/C [34]: 102%
viability, T/C [35]: 120%

O=C(c1cc(Cc2n[nH]c(=O)c3ccccc23)ccc1F)N1CCN(C(=O)C2CC2)CC1 + C=CC(=O)N1CCN(c2nc(OCC3CCCN3C)nc3c2CCN(c2cccc4cccc(C)c24)C3)CC1CC#N
IC50 (curve of first compound, second compound 0.0316 µM): > 10 µM
IC50 [1]: > 10 µM
IC50 [2]: > 10 µM
IC50 [3]: > 10 µM
IC50 [4]: < 0.0316 µM
viability, T/C (second compound 0.0316 µM, first compound 0.0316 µM): 90%
viability, T/C (second compound 0.0316 µM, first compound 0.1 µM): 97%
viability, T/C (second compound 0.0316 µM, first compound 0.316 µM): 96.7%
viability, T/C (second compound 0.0316 µM, first compound 1 µM): 96.4%
viability, T/C (second compound 0.0316 µM, first compound 3.16 µM): 89.4%
viability, T/C (second compound 0.0316 µM, first compound 10 µM): 111%
viability, T/C [7]: 97.9%
viability, T/C [8]: 96.4%
viability, T/C [9]: 97.5%
viability, T/C [10]: 83.5%
viability, T/C [11]: 87.5%
viability, T/C [36]: 101%
viability, T/C [13]: 97.5%
viability, T/C [14]: 107%
viability, T/C [15]: 103%
viability, T/C [16]: 84.9%
viability, T/C [17]: 87.3%
viability, T/C [37]: 93.6%
viability, T/C [19]: 89.9%
viability, T/C [20]: 95.3%
viability, T/C [21]: 79%
viability, T/C [22]: 73.4%
viability, T/C [23]: 86.2%
viability, T/C [38]: 90.5%
viability, T/C [25]: 42.9%
viability, T/C [26]: 31.2%
viability, T/C [27]: 24.1%
viability, T/C [28]: 24.4%
viability, T/C [29]: 39.9%
viability, T/C [39]: 12.4%

CC(=O)OC12COC1CC(O)C1(C)C(=O)C(O)C3=C(C)C(OC(=O)C(O)C(NC(=O)OC(C)(C)C)c4ccccc4)CC(O)(C(OC(=O)c4ccccc4)C21)C3(C)C (configuration not stated) + C=CC(=O)N1CCN(c2nc(=O)n(-c3c(C)ccnc3C(C)C)c3nc(-c4c(O)cccc4F)c(F)cc23)C(C)C1
IC50 [1]: > 3.16 µM
IC50 [2]: > 3.16 µM
IC50 [3]: > 3.16 µM
IC50 [4]: > 3.16 µM
IC50 [5]: > 3.16 µM
viability, T/C [6]: 86.2%
viability, T/C [7]: 74.1%
viability, T/C [8]: 77.7%
viability, T/C [9]: 94.7%
viability, T/C [10]: 94.3%
viability, T/C [11]: 114%
viability, T/C [12]: 86%
viability, T/C [13]: 82.5%
viability, T/C [14]: 74.4%
viability, T/C [15]: 77.1%
viability, T/C [16]: 88.4%
viability, T/C [17]: 113%
viability, T/C [18]: 90.6%
viability, T/C [19]: 87%
viability, T/C [20]: 81.4%
viability, T/C [21]: 62.5%
viability, T/C [22]: 65.6%
viability, T/C [23]: 69%
viability, T/C [24]: 97.3%
viability, T/C [25]: 88.1%
viability, T/C [26]: 90.3%
viability, T/C [27]: 101%
viability, T/C [28]: 98.4%
viability, T/C [29]: 104%
viability, T/C [30]: 98.9%
viability, T/C [31]: 92.2%
viability, T/C [32]: 90.1%
viability, T/C [33]: 73.2%
viability, T/C [34]: 86.8%
viability, T/C [35]: 76.8%

CCNC(=O)CC1N=C(c2ccc(Cl)cc2)c2cc(OC)ccc2-n2c(C)nnc21 (configuration not stated) + COc1cc2nc(C)nc(NC(C)c3cc(N)cc(C(F)(F)F)c3)c2cc1OC1CCOC1
IC50 [1]: > 10 µM
IC50 [2]: > 10 µM
IC50 [3]: > 10 µM
IC50 [4]: > 10 µM
IC50 [5]: 0.0382 µM
viability, T/C [7]: 91.4%
viability, T/C [8]: 87.3%
viability, T/C [9]: 75.6%
viability, T/C [10]: 75.2%
viability, T/C [11]: 70.5%
viability, T/C [36]: 75.8%
viability, T/C [13]: 95.6%
viability, T/C [14]: 103%
viability, T/C [15]: 76.3%
viability, T/C [16]: 72.4%
viability, T/C [17]: 68.5%
viability, T/C [37]: 73.1%
viability, T/C [19]: 83.7%
viability, T/C [20]: 86.2%
viability, T/C [21]: 74.1%
viability, T/C [22]: 65.6%
viability, T/C [23]: 69.5%
viability, T/C [38]: 66.8%
viability, T/C [25]: 70.8%
viability, T/C [26]: 71.3%
viability, T/C [27]: 66.5%
viability, T/C [28]: 73.8%
viability, T/C [29]: 60.7%
viability, T/C [39]: 75.4%
viability, T/C [31]: 48.7%
viability, T/C [32]: 52%
viability, T/C [33]: 39.5%
viability, T/C [34]: 34.2%
viability, T/C [35]: 40%
viability, T/C (second compound 10 µM, first compound 10 µM): 28.4%

CC(C)n1nc(-c2ccc3oc(N)nc3c2)c2c(N)ncnc21
viability, T/C (compound 0.000316 µM): 91.3% [middle of 5 runs]
viability, T/C (compound 0.001 µM): 91.3% [middle of 5 runs]
viability, T/C (compound 0.00316 µM): 82.9% [middle of 5 runs]
viability, T/C (compound 0.01 µM): 74.3% [middle of 5 runs]
viability, T/C (compound 0.0316 µM): 67.2% [middle of 5 runs]
viability, T/C (compound 0.1 µM): 50.7% [middle of 5 runs]
IC50 (curve of compound): > 0.1 µM and 0.0957 µM
